From PubChem BioAssay AID1963963 (Molecular Pharmacology Branch, DTP, NCI, 2024)

System: 958667-338-R-J2-PDC tumor spheroids viability
Assay: Anticancer human tumor 958667-338-R-J2-PDC patient-derived colon adenocarcinoma cell line growth inhibition [PI3K]
Settings: spheroids with HUVEC and MSC; for IC50: curve of first compound; for viability, T/C: stronger effect = lower value
Excerpt: Combinatorial screen of targeted agents with the PI3K inhibitors inavolisib, alpelisib, duvelisib, and copanlisib in multi-cell type tumor spheroids
A high-throughput screen of multi-cell type tumor spheroids was designed to identify active combinations of targeted small molecules and PI3K pathway inhibitors. Complex spheroids include a stromal component modeled by human endothelial cells (HUVEC) and fibroblasts modeled by human mesenchymal stem cells (MSCs). The concentration ranges selected for each drug and investigational agent were based upon clinically achievable concentrations if the clinical Cmax of the agent was known.
Compounds. The drugs and investigational agents: inavolisib (NSC800729), alpelisib (NSC765974), duvelisib (NSC772469), copanlisib (NSC816437), ipatasertib (NSC767898), afuresertib (NSC778305), talazoparib (NSC767125), sapanisertib (NSC764658), selumetinib (NSC741078), tovorafenib (DAY101, NSC766906), vemurafenib (NSC761431), ravoxertinib (NSC781343), sotorasib (NSC818433), MRTX1133 (NSC 836407), abemaciclib (NSC 768073), palbociclib (NSC758247), venetoclax (NSC 766270), SY5609 (NSC837396), enzalutamide (NSC755605), and darolutamide (NSC825331), were obtained from the National Cancer Institute (NCI) Developmental Therapeutics Program Chemical Repository. The FDA-approved anticancer drug set is available from the NCI Developmental Therapeutics Program. […] The stock solutions were prepared in dimethyl sulfoxide (DMSO, Sigma-Aldrich, St. Louis, MO, cat. D2650) at 800-fold the tested concentration and stored at -70 degrees C prior to their use. All drugs and investigational agents were tested over a range starting from a high concentration at or near the clinical Cmax and decreasing in half-log increments. If the clinical Cmax for an agent had not been determined, the highest concentration tested was 10 microM.
Cell Culture. All cells were maintained in an incubator at 37 degrees C and 5% CO2 with 95% humidity. The PDC lines were cultured according to standard operating procedures established by the NCI PDMR (https://pdmr.cancer.gov/sops/default.htm). All PDCs were thawed and cultured in Matrigel-coated flasks prepared with a working solution of 1X Ham's F-12 nutrient mix, without supplementation (Invitrogen, Waltham, MA, cat. 11765054), 100 U/mL penicillin-streptomycin (Invitrogen, cat. 15140122), and 2.5% Matrigel (Corning Inc., Corning, NY, cat. 354248) for the first three passages. The 354836-022-R-J1-PDC, 475296-252-R-J1-PDC, and 997726-040-R-J2-PDC lines were cultured in 6A media, which includes advanced DMEM/F-12 (Thermo Fisher Scientific, cat. 12634028), 10 mM HEPES (Thermo Fisher Scientific, cat. 15630080), 1X GlutaMAX supplement (Thermo Fisher Scientific, cat. 35050061), 0.1 mg/mL primocin (InvivoGen, San Diego, CA, cat. ant-pm-2), 10% defined fetal bovine serum, heat inactivated (HyClone Laboratories Inc., Logan, UT, cat. SH30070.03HI), 50% L-WRN conditioned media (ATCC, cat. CRL-3276), 1.25 mM N-Acetyl-L-cysteine (Sigma-Aldrich, cat. A9165), 10 mM nicotinamide (Sigma-Aldrich, cat. N0636), 1X B-27 supplement (Thermo Fisher Scientific, cat. 17504044), 1X N-2 supplement (Thermo Fisher Scientific, cat. 17502048), and 10 microM Y-27632 dihydrochloride (Tocris Bioscience, Bristol, United Kingdom, cat. 1254). The 624824-186-R-J2-PDC line was cultured in 6C/Colon 1B media, which includes all 6A media components plus 50 ng/mL human EGF recombinant protein (Thermo Fisher Scientific, cat. PHG0311). […]
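Note: spheroids exposed to compounds for seven days before readout.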

Question: `Cn1cnc2c(F)c(Nc3ccc(Br)cc3Cl)c(C(=O)NOCCO)cc21` + CC(Nc1ccc2c(c1)OCCn1cc(N3C(=O)OCC3C(F)F)nc1-2)C(N)=O was tested. Which IC50 (second compound 0.00316 µM) did it give?
Answer: The IC50 was 436 nM.

Question: What about the IC50 (second compound 0.01 µM) of the same compound?
Answer: The IC50 was 358 nM.

Question: What about the IC50 (second compound 0.0316 µM) of the same compound?
Answer: Its IC50 is 174 nM.

Question: And the IC50 (second compound 0.1 µM)?
Answer: The IC50 was 87.5 nM.

Question: And the IC50 (second compound 0.316 µM)?
Answer: Its IC50 is 66.9 nM.

Question: What about the IC50 (second compound 1 µM) of the same compound?
Answer: Its IC50 is < 9.49 nM.

Question: And the viability, T/C (second compound 0.00316 µM, first compound 0.00949 µM)?
Answer: Its viability, T/C is 86.6%.

Question: And the viability, T/C (second compound 0.00316 µM, first compound 0.03 µM)?
Answer: The viability, T/C was 74.4%.

Question: What about the viability, T/C (second compound 0.00316 µM, first compound 0.0949 µM) of the same compound?
Answer: The viability, T/C was 95.9%.

Question: What about the viability, T/C (second compound 0.00316 µM, first compound 0.3 µM) of the same compound?
Answer: The viability, T/C was 57.2%.

Question: What about the viability, T/C (second compound 0.00316 µM, first compound 0.949 µM) of the same compound?
Answer: Its viability, T/C is 32%.

Question: What about the viability, T/C (second compound 0.00316 µM, first compound 3 µM) of the same compound?
Answer: Its viability, T/C is 16.8%.

Question: And the viability, T/C (second compound 0.01 µM, first compound 0.00949 µM)?
Answer: The viability, T/C was 92.2%.

Question: And the viability, T/C (second compound 0.01 µM, first compound 0.03 µM)?
Answer: Its viability, T/C is 101%.

Question: And the viability, T/C (second compound 0.01 µM, first compound 0.0949 µM)?
Answer: The viability, T/C was 73%.

Question: And the viability, T/C (second compound 0.01 µM, first compound 0.3 µM)?
Answer: Its viability, T/C is 54.4%.

Question: And the viability, T/C (second compound 0.01 µM, first compound 0.949 µM)?
Answer: The viability, T/C was 30%.

Question: And the viability, T/C (second compound 0.01 µM, first compound 3 µM)?
Answer: The viability, T/C was 12.9%.

Question: What about the viability, T/C (second compound 0.0316 µM, first compound 0.00949 µM) of the same compound?
Answer: Its viability, T/C is 88.6%.

Question: And the viability, T/C (second compound 0.0316 µM, first compound 0.03 µM)?
Answer: The viability, T/C was 76.3%.

Question: And the viability, T/C (second compound 0.0316 µM, first compound 0.0949 µM)?
Answer: Its viability, T/C is 60.1%.

Question: What about the viability, T/C (second compound 0.0316 µM, first compound 0.3 µM) of the same compound?
Answer: Its viability, T/C is 42.4%.

Question: What about the viability, T/C (second compound 0.0316 µM, first compound 0.949 µM) of the same compound?
Answer: The viability, T/C was 20.8%.

Question: And the viability, T/C (second compound 0.0316 µM, first compound 3 µM)?
Answer: Its viability, T/C is 9.82%.

Question: What about the viability, T/C (second compound 0.1 µM, first compound 0.00949 µM) of the same compound?
Answer: The viability, T/C was 78.7%.

Question: What about the viability, T/C (second compound 0.1 µM, first compound 0.03 µM) of the same compound?
Answer: The viability, T/C was 57.5%.

Question: And the viability, T/C (second compound 0.1 µM, first compound 0.0949 µM)?
Answer: Its viability, T/C is 57.5%.

Question: And the viability, T/C (second compound 0.1 µM, first compound 0.3 µM)?
Answer: Its viability, T/C is 25.3%.

Question: And the viability, T/C (second compound 0.1 µM, first compound 0.949 µM)?
Answer: Its viability, T/C is 17%.

Question: What about the viability, T/C (second compound 0.1 µM, first compound 3 µM) of the same compound?
Answer: The viability, T/C was 8.31%.

Question: And the viability, T/C (second compound 0.316 µM, first compound 0.00949 µM)?
Answer: Its viability, T/C is 59.7%.

Question: What about the viability, T/C (second compound 0.316 µM, first compound 0.03 µM) of the same compound?
Answer: Its viability, T/C is 59.5%.

Question: And the viability, T/C (second compound 0.316 µM, first compound 0.0949 µM)?
Answer: Its viability, T/C is 46.9%.

Question: And the viability, T/C (second compound 0.316 µM, first compound 0.3 µM)?
Answer: Its viability, T/C is 23.7%.

Question: And the viability, T/C (second compound 0.316 µM, first compound 0.949 µM)?
Answer: The viability, T/C was 15.7%.

Question: And the viability, T/C (second compound 0.316 µM, first compound 3 µM)?
Answer: Its viability, T/C is 5.79%.

Question: What about the viability, T/C (second compound 1 µM, first compound 0.00949 µM) of the same compound?
Answer: Its viability, T/C is 44.6%.

Question: And the viability, T/C (second compound 1 µM, first compound 0.03 µM)?
Answer: Its viability, T/C is 43%.

Question: What about the viability, T/C (second compound 1 µM, first compound 0.0949 µM) of the same compound?
Answer: The viability, T/C was 34.8%.

Question: What about the viability, T/C (second compound 1 µM, first compound 0.3 µM) of the same compound?
Answer: Its viability, T/C is 22.8%.

Question: And the viability, T/C (second compound 1 µM, first compound 0.949 µM)?
Answer: Its viability, T/C is 11.5%.

Question: And the viability, T/C (second compound 1 µM, first compound 3 µM)?
Answer: The viability, T/C was 3.12%.
